Measurements published in PubChem BioAssay (NCI).
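Growth conditions: 96-well plates. Treatment: test compound, 48 hours, 5 concentrations. Analysis: linear interpolation between bracketing concentrations; unreached endpoints set to highest concentration. TGI: concentration producing complete growth inhibition.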

Key:
Test in all cases: NCI-60 cell line screen, 48 h
OVCAR-4 ovarian = tested on: OVCAR-4 ovarian
MALME-3M melanoma = tested on: MALME-3M melanoma
OVCAR-8 ovarian = tested on: OVCAR-8 ovarian
OVCAR-3 ovarian = tested on: OVCAR-3 ovarian
SNB-78 CNS = tested on: SNB-78 CNS
EKVX NSCLC = tested on: EKVX NSCLC
U251 CNS = tested on: U251 CNS
SK-MEL-28 melanoma = tested on: SK-MEL-28 melanoma
HOP-18 NSCLC = tested on: HOP-18 NSCLC
UACC-62 melanoma = tested on: UACC-62 melanoma
NCI-H226 lung = tested on: NCI-H226 lung
SR leukemia = tested on: SR leukemia
TK-10 renal = tested on: TK-10 renal
HCC-2998 colon = tested on: HCC-2998 colon
786-0 renal = tested on: 786-0 renal
SF-295 CNS = tested on: SF-295 CNS
SN12C renal = tested on: SN12C renal
M14 melanoma = tested on: M14 melanoma
DMS 273 small cell lung = tested on: DMS 273 small cell lung
LXFL 529 NSCLC = tested on: LXFL 529 NSCLC
KM20L2 colon = tested on: KM20L2 colon
SW-620 colon = tested on: SW-620 colon
A549 NSCLC = tested on: A549 NSCLC
NCI-H522 lung = tested on: NCI-H522 lung
CAKI-1 renal = tested on: CAKI-1 renal
OVCAR-5 ovarian = tested on: OVCAR-5 ovarian
DLD-1 colon = tested on: DLD-1 colon
SK-MEL-2 melanoma = tested on: SK-MEL-2 melanoma
M19-MEL melanoma = tested on: M19-MEL melanoma
UO-31 renal = tested on: UO-31 renal
DMS 114 small cell lung = tested on: DMS 114 small cell lung
RPMI-8226 leukemia = tested on: RPMI-8226 leukemia
RXF 393 renal = tested on: RXF 393 renal
SNB-19 CNS = tested on: SNB-19 CNS
RXF-631 renal = tested on: RXF-631 renal
IGROV1 ovarian = tested on: IGROV1 ovarian
SF-268 CNS = tested on: SF-268 CNS
KM12 colon = tested on: KM12 colon
COLO 205 colon = tested on: COLO 205 colon
NCI-H460 lung = tested on: NCI-H460 lung
SNB-75 CNS = tested on: SNB-75 CNS
SF-539 CNS = tested on: SF-539 CNS
HCT-15 colon = tested on: HCT-15 colon
NCI-H23 lung = tested on: NCI-H23 lung
HCT-116 colon = tested on: HCT-116 colon

In the case of CCOc1ccc([Se][Se]c2ccc(OCC)cc2)cc1, the TGI (OVCAR-4 ovarian) is reported as over 100 µM, the TGI (MALME-3M melanoma) is reported as over 100 µM and the TGI (OVCAR-8 ovarian) is reported as over 100 µM. The TGI (OVCAR-3 ovarian) was over 100 µM, the TGI (SNB-78 CNS) was over 100 µM and the TGI (EKVX NSCLC) was over 100 µM. The TGI (U251 CNS) was 96.8 µM, the TGI (SK-MEL-28 melanoma) was over 100 µM and the TGI (HOP-18 NSCLC) was over 100 µM. It also gave a TGI (UACC-62 melanoma) of over 100 µM, a TGI (NCI-H226 lung) of over 100 µM and a TGI (SR leukemia) of over 100 µM. It also gave a TGI (TK-10 renal) of over 100 µM, a TGI (HCC-2998 colon) of over 100 µM and a TGI (786-0 renal) of over 100 µM. For the same compound, the TGI (SF-295 CNS) was over 100 µM, the TGI (SN12C renal) was over 100 µM and the TGI (M14 melanoma) was over 100 µM. It also gave a TGI (DMS 273 small cell lung) of over 100 µM, a TGI (LXFL 529 NSCLC) of over 100 µM and a TGI (KM20L2 colon) of over 100 µM. The TGI (SW-620 colon) was over 100 µM, the TGI (A549 NSCLC) was over 100 µM and the TGI (NCI-H522 lung) was over 100 µM. For the same compound, the TGI (CAKI-1 renal) was 49.6 µM, the TGI (OVCAR-5 ovarian) was over 100 µM and the TGI (DLD-1 colon) was over 100 µM. For the same compound, the TGI (SK-MEL-2 melanoma) was over 100 µM, the TGI (M19-MEL melanoma) was over 100 µM and the TGI (UO-31 renal) was over 100 µM. The TGI (DMS 114 small cell lung) was over 100 µM, the TGI (RPMI-8226 leukemia) was over 100 µM and the TGI (RXF 393 renal) was over 100 µM. It also gave a TGI (SNB-19 CNS) of over 100 µM, a TGI (RXF-631 renal) of over 100 µM and a TGI (IGROV1 ovarian) of over 100 µM. The TGI (SF-268 CNS) was over 100 µM, the TGI (KM12 colon) was over 100 µM and the TGI (COLO 205 colon) was over 100 µM. For the same compound, the TGI (NCI-H460 lung) was over 100 µM, the TGI (SNB-75 CNS) was over 100 µM and the TGI (SF-539 CNS) was over 100 µM. For the same compound, the TGI (HCT-15 colon) was over 100 µM, the TGI (NCI-H23 lung) was 54.9 µM and the TGI (HCT-116 colon) was over 100 µM.
